# In paper PMC6407917, “Identification of GSK3186899/DDD853651 as a Preclinical Development Candidate for the Treatment of Visceral Leishmaniasis” (Journal of Medicinal Chemistry, 2018):
# Assays:
# Experiment in all cases: biochemical
# Set-up in all cases: species or system HEK293/K-562/placenta mixed human extract; Kinobeads chemoproteomic competition binding, quantified by TMT LC-MS/MS, dose response up to 20 uM
# [1] = target: ITK (Homo sapiens, UniProt Q08881)
# [2] = target: MAP2K2 (Homo sapiens, UniProt P36507)
# [3] = target: CDK10 (Homo sapiens, UniProt Q15131)
# [4] = target: EIF2AK1 (Homo sapiens, UniProt Q9BQI3)
# [5] = target: CSNK1E (Homo sapiens, UniProt P49674)
# [6] = target: GSK3B (Homo sapiens, UniProt P49841)
# [7] = target: PIK3C3 (Homo sapiens, UniProt Q8NEB9)
# [8] = target: CSNK2A2 (Homo sapiens, UniProt P19784)
# [9] = target: MAP3K15 (Homo sapiens, UniProt Q6ZN16)
# [10] = target: RPS6KA5 (Homo sapiens, UniProt O75582)
# [11] = target: NTRK1 (Homo sapiens, UniProt P04629)
# [12] = target: CDK2 (Homo sapiens, UniProt P24941)
# [13] = target: PIP4K2B (Homo sapiens, UniProt P78356)
# [14] = target: LRRK2 (Homo sapiens, UniProt Q5S007)
# [15] = target: MAP3K1 (Homo sapiens, UniProt Q13233)
# [16] = target: PRKAG1 (Homo sapiens, UniProt P54619)
# [17] = target: DDR2 (Homo sapiens, UniProt Q16832)
# [18] = target: EGFR (Homo sapiens, UniProt P00533)
# [19] = target: BMPR1A (Homo sapiens, UniProt P36894)
# [20] = target: ARAF (Homo sapiens, UniProt P10398)
# [21] = target: STK11 (Homo sapiens, UniProt Q15831)
# STK11, sequence (Q15831 whole entry): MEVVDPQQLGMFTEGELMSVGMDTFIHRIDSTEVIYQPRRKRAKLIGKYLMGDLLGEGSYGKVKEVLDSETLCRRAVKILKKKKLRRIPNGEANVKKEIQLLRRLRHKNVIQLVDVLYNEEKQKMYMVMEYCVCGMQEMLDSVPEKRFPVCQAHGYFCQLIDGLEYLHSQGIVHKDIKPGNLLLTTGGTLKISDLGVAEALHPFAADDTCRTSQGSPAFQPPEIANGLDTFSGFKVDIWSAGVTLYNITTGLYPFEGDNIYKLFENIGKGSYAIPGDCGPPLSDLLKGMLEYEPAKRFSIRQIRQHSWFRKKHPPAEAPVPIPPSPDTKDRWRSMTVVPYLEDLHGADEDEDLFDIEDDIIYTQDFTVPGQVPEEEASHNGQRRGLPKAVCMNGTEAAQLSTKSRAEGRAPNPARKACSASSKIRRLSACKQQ
# PRKAG1, sequence (P54619 whole entry): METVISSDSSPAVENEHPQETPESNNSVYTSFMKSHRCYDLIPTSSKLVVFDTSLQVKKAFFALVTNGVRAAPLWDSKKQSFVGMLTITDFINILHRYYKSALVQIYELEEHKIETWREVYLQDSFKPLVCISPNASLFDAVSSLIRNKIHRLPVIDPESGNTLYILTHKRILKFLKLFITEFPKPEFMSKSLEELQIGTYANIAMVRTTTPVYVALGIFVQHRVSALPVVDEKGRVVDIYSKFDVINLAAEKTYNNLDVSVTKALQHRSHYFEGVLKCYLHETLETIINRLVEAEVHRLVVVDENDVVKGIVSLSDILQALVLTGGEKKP
# CSNK2A2, sequence (P19784 whole entry): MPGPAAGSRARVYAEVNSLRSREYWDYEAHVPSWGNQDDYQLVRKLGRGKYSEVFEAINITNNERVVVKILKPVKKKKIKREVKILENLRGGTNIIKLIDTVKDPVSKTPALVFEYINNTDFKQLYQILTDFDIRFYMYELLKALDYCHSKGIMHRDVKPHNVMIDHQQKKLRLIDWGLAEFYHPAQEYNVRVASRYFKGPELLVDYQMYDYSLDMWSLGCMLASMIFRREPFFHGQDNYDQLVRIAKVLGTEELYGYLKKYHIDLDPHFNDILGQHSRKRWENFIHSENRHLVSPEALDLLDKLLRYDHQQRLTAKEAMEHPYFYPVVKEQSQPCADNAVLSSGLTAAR
# ARAF, sequence (P10398 whole entry): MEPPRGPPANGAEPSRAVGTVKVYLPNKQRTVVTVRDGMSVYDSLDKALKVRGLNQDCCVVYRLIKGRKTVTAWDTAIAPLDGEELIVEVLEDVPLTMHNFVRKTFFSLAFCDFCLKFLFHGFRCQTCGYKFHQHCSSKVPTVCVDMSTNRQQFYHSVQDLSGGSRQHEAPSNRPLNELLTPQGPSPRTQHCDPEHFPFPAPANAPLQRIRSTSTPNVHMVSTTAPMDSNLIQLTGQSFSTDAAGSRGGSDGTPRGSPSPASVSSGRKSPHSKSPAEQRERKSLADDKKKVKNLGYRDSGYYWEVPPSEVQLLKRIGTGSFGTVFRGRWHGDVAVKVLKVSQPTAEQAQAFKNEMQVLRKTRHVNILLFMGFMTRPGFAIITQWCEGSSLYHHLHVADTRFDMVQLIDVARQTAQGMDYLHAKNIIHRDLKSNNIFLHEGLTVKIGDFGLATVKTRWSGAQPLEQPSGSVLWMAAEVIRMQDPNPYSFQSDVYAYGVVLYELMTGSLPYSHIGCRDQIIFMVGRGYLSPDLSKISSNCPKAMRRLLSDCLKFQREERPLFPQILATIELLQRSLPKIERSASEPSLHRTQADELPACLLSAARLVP
# MAP3K15, sequence (Q6ZN16 whole entry): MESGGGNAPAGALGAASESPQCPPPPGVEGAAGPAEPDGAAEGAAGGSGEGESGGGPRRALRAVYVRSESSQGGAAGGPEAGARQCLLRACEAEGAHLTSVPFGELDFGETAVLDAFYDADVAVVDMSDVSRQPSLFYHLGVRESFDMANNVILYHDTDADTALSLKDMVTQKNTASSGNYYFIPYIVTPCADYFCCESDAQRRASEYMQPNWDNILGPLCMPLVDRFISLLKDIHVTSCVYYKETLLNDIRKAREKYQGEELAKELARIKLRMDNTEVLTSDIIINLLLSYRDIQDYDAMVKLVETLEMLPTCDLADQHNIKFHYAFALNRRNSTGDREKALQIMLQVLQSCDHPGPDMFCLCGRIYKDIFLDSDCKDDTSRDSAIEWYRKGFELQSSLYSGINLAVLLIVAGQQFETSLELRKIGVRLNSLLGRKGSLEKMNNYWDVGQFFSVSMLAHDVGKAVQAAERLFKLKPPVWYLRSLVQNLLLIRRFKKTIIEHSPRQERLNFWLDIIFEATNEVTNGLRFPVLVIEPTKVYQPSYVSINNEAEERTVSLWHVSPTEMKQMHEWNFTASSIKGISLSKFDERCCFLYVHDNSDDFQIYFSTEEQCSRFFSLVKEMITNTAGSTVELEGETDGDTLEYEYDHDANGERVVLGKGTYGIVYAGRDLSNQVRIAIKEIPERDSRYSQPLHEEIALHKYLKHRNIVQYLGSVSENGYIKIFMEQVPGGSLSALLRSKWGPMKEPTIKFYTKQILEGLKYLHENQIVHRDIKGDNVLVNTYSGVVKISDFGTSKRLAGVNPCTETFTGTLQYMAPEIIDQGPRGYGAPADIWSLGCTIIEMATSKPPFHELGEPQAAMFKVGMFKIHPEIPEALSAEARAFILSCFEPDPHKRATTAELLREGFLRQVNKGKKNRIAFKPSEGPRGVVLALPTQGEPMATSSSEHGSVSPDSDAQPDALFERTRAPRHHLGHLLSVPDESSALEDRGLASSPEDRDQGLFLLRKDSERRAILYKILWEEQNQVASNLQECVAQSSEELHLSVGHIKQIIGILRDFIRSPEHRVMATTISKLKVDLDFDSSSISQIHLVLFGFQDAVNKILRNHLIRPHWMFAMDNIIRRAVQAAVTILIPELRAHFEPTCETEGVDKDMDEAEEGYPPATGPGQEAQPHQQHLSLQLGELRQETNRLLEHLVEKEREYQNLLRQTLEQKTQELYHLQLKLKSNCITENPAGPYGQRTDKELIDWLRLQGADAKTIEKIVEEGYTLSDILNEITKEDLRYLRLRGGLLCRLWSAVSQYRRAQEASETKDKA
# CSNK1E, sequence (P49674 whole entry): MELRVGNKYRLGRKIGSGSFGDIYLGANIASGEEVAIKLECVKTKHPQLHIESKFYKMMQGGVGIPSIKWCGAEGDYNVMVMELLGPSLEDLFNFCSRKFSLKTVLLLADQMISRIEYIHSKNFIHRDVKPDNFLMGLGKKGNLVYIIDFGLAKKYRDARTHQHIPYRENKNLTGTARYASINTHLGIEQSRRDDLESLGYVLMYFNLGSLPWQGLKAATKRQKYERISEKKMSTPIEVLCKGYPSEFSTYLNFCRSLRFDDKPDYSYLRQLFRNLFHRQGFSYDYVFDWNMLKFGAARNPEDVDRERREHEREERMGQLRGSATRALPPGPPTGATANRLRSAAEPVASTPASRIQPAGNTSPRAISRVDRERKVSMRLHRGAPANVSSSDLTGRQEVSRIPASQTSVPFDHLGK
# DDR2, sequence (Q16832 whole entry): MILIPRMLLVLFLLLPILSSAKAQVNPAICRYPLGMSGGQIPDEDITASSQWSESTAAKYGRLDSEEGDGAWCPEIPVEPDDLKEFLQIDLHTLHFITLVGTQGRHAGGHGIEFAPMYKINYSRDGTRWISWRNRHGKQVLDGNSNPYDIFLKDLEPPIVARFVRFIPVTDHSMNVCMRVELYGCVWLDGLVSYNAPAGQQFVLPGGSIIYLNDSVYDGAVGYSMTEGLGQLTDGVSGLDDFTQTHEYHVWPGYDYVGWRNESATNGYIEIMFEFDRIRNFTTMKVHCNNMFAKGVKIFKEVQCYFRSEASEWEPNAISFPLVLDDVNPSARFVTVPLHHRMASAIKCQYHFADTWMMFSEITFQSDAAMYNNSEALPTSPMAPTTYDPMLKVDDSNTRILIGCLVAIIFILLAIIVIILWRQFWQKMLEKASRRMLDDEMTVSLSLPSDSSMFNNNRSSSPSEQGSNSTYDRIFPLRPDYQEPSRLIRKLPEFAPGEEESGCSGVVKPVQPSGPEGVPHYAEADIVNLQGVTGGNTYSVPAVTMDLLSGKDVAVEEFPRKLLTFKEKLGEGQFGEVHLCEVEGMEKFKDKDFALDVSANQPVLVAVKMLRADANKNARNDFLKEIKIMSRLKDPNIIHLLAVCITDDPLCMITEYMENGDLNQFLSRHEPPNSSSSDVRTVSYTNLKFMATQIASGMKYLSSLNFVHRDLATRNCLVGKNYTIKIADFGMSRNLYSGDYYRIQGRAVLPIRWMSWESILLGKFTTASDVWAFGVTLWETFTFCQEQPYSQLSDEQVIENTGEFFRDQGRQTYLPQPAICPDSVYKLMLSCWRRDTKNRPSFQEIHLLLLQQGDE
# MAP2K2, sequence (P36507 whole entry): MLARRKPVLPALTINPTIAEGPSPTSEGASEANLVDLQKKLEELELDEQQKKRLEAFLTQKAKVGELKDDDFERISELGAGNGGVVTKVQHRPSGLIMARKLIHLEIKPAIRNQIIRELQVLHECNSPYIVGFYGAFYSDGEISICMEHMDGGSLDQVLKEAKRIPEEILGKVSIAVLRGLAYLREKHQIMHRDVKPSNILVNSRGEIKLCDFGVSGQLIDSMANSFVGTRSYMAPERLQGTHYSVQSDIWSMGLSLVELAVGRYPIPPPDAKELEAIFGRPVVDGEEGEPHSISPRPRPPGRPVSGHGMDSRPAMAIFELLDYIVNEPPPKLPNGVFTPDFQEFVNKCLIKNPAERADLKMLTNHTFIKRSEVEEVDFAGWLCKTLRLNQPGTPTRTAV
smiles,measurement,setting,value
"COc1nc(N[C@H]2CC[C@H](NS(=O)(=O)CC(C)C)CC2)nc2[nH]nc(N3CCOC[C@H]3C)c12 [compound 39, N-(trans-4-((4-Methoxy-3-((R)-3-methylmorpholino)-1H-pyrazolo[3,4-d]pyrimidin-6-yl)amino)cyclohexyl)-2-methylpropane-1-sulfonamide]",IC50,[1],≥ 20 µM
same,IC50,[2],≥ 20 µM
same,IC50,[3],≥ 20 µM
same,IC50,[4],≥ 20 µM
same,IC50,[5],≥ 20 µM
same,IC50,[6],≥ 20 µM
same,IC50,[7],≥ 20 µM
same,IC50,[8],≥ 20 µM
same,IC50,[9],≥ 20 µM
same,IC50,[10],≥ 20 µM
same,IC50,[11],≥ 20 µM
same,IC50,[12],4.5 µM
same,IC50,[13],≥ 20 µM
same,IC50,[14],≥ 20 µM
same,IC50,[15],≥ 20 µM
same,IC50,[16],≥ 20 µM
same,IC50,[17],≥ 20 µM
same,IC50,[18],≥ 20 µM
same,IC50,[19],≥ 20 µM
same,IC50,[20],≥ 20 µM
same,IC50,[21],≥ 20 µM
